From patent publication US20090298843A1, “TREATMENT OF HEMATOLOGICAL MALIGNANCIES WITH FTS AND A BCR-ABL TYROSINE KINASE INHIBITOR” (RAMOT AT TEL AVIV UNIVERSITY LTD., priority 2006, published 2009)

Legend:
[1] = test system: 697 cells (Human T-cell leukemia, ALL); assay: Cell growth inhibition assay, FTS alone (direct cell count); format: cell-based; settings: for cell number in FTS-treated cells as a percentage of controls (avg): counted 48 h after addition
Description: (§1) The following cell lines were examined, representing Acute Myeloid Leukemia (AML), Acute Lymphoblastic Leukemia (ALL), and Chronic Myeloid Leukemia (CML): 1. CEM (Human T-cell leukemia, ALL) 2. HSB-2 (Human T-cell leukemia, ALL) carrying the t(1; 7) (p34; q34) involving the lck and tcrb genes and a submicroscopic del(1)(p32) leading to the Sil-Scl fusion gene 3. 697 (Human T-cell leukemia, ALL) 4. Raji (Human Burkitt's lymphoma) with overexpression and mutation in the c-Myc gene 5. U-937 (Human histiocytic lymphoma, AML) 6. HL-60 (AML) 7. K562 (Himan, CML) with a b3-a2 fusion gene to create the Bcr-Abl chimeric oncoprotein.
(§2) Cells were grown at 37° C. in RPMI containing 5% FCS, 100 μg/mL streptomycin, and 100 units/mL penicillin and maintained in a humidified atmosphere of 95% air/5% CO2. […] Each experiment tin quadruplicate) was performed at least two times.

[2] = test system: CEM cells (Human T-cell leukemia, ALL); assay: as above; format: cell-based; settings: for cell number in FTS-treated cells as a percentage of controls (avg): CEM, counted 48 h after addition
Description: as §1, §2

[3] = test system: HSB-2 cells (Human T-cell leukemia, ALL); assay: as above; format: cell-based; settings: for cell number in FTS-treated cells as a percentage of controls (avg): HSB, counted 48 h after addition
Description: as §1, §2

[4] = test system: K562 cells (Human, CML); assay: as above; format: cell-based; settings: for cell number in FTS-treated cells as a percentage of controls (avg): counted 48 h after addition
Description: as §1, §2

[5] = test system: Raji cells (Human Burkitt's lymphoma); assay: as above; format: cell-based; settings: for cell number in FTS-treated cells as a percentage of controls (avg): counted 48 h after addition
Description: as §1, §2

[6] = test system: U-937 cells (Human histiocytic lymphoma, AML); assay: as above; format: cell-based; settings: U937; for cell number in FTS-treated cells as a percentage of controls (avg): counted 48 h after addition
Description: as §1, §2

[7] = test system: HL-60 cells (AML); assay: as above; format: cell-based, Human; settings: for cell number in FTS-treated cells as a percentage of controls (avg): counted 48 h after addition
Description: as §1, §2

[8] = test system: K562 cells (Human, CML); assay: FACS analysis of propidium iodide stained cells (cell cycle distribution, sub-G1); format: cell-based; settings: for cells in sub-G1: 48 h
Method: Third, a FACS analysis was performed. Cells were plated at a density of 50,000 cells per ml in 10 cm plates for fluorescence-activated cell-sorting (FACS) analysis of propidium iodide stained cells. […] Forty-eight hours (48 h) later, propidium iodide mixed with 1% Triton X-100 was added to the cells, and the cell cycle distribution of the cells was assessed using a FACS machine.
[Gambacorti-Passerini, C., le Coutre, P., Mologni, L., Fanelli, M., Bertazzoli, C., Marchesi, E., Di Nicola, M., Biondi, A., Corneo, G. M., Belotti, D., Pogliani, E., Lydon, N. B., Blood Cells Mol Dis. 23(3):380-94 (1997)].

[9] = Phase-I open-label study of FTS in human patients with advanced hematologic malignancies; format: in vivo; settings: for ANC, baseline level / HGB, baseline level / PLT, baseline level: before treatment
Method: One human patient with advanced myelodysplastic syndrome (MDS) refractory to chemotherapy was treated with FTS, at a dose of 200 b.i.d. (400 mg daily), administered on days 1 to 21 of a 28 day cycle. […] The results are graphically depicted in FIG. 7 and in Table 3 (below). Five human patients with advanced myelodysplastic syndrome (MDS), acute myelogenous leukemia (AML), or chronic myelogenous leukemia (CML) refractory to chemotherapy were treated with FTS at doses of 200 to 600 mg b.i.d. (400 to 1200 mg daily) administered on days 1 to 21 of a 28 day cycle. […]

[10] = test system: seven leukemia cell lines (CEM, HSB-2, 697, Raji, U-937, HL-60, K562); assay: Cell growth inhibition assay, FTS alone, summary over the seven cell lines; format: cell-based, Human
Description: as §1, §2

[11] = Homo sapiens, read-out: IC50 for FTS inhibition of leukemia cell growth
[12] = person one, AML, FTS 400 mg b.i.d.
[13] = person two, AML, FTS 400 mg b.i.d.
[14] = person, MDS, FTS 200 b.i.d., days 1 to 21 of a 28 day cycle

SMILES: CC(C)=CCC/C(C)=C/CC/C(C)=C/CSc1ccccc1C(=O)O [FTS, farnesylthiosalicylic acid]
- cell number in FTS-treated cells as a percentage of controls (avg) ([1]; FTS 12.5 uM): 27%
- cell number in FTS-treated cells as a percentage of controls (avg) ([1]; FTS 25 uM): 44%
- cell number in FTS-treated cells as a percentage of controls (avg) ([1]; FTS 50 uM): 34%
- cell number in FTS-treated cells as a percentage of controls (avg) ([1]; FTS 75 uM): 4%
- cell number in FTS-treated cells as a percentage of controls (avg) ([1]; FTS 100 uM): 2%
- IC50 ([1]; Homo sapiens, T-cell): 25 µM
- cell number in FTS-treated cells as a percentage of controls (avg) ([2]; FTS 12.5 uM): 89%
- cell number in FTS-treated cells as a percentage of controls (avg) ([2]; FTS 25 uM): 78%
- cell number in FTS-treated cells as a percentage of controls (avg) ([2]; FTS 50 uM): 71%
- cell number in FTS-treated cells as a percentage of controls (avg) ([2]; FTS 75 uM): 32%
- cell number in FTS-treated cells as a percentage of controls (avg) ([2]; FTS 100 uM): 12%
- IC50 ([2]; Homo sapiens, CCRF-CEM): 50 µM
- cell number in FTS-treated cells as a percentage of controls (avg) ([3]; FTS 12.5 uM): 88%
- cell number in FTS-treated cells as a percentage of controls (avg) ([3]; FTS 25 uM): 53%
- cell number in FTS-treated cells as a percentage of controls (avg) ([3]; FTS 50 uM): 38%
- cell number in FTS-treated cells as a percentage of controls (avg) ([3]; FTS 75 uM): 22%
- cell number in FTS-treated cells as a percentage of controls (avg) ([3]; FTS 100 uM): 4%
- IC50 ([3]; Homo sapiens, HSB2): 25 µM
- cell number in FTS-treated cells as a percentage of controls (avg) ([4]; FTS 6.25 uM): 100%
- cell number in FTS-treated cells as a percentage of controls (avg) ([4]; FTS 12.5 uM): 115%
- cell number in FTS-treated cells as a percentage of controls (avg) ([4]; FTS 25 uM): 107%
- cell number in FTS-treated cells as a percentage of controls (avg) ([4]; FTS 50 uM): 37%
- cell number in FTS-treated cells as a percentage of controls (avg) ([4]; FTS 75 uM): 14%
- cell number in FTS-treated cells as a percentage of controls (avg) ([4]; FTS 100 uM): 1%
- IC50 [4, 11]: 50 µM
- cell number in FTS-treated cells as a percentage of controls (avg) ([5]; FTS 6.25 uM): 63%
- cell number in FTS-treated cells as a percentage of controls (avg) ([5]; FTS 12.5 uM): 61%
- cell number in FTS-treated cells as a percentage of controls (avg) ([5]; FTS 25 uM): 33%
- cell number in FTS-treated cells as a percentage of controls (avg) ([5]; FTS 50 uM): 24%
- cell number in FTS-treated cells as a percentage of controls (avg) ([5]; FTS 75 uM): 11%
- cell number in FTS-treated cells as a percentage of controls (avg) ([5]; FTS 100 uM): 5%
- IC50 [5, 11]: 20 µM
- IC50 ([6]; Homo sapiens, U-937, read-out: IC50 for FTS inhibition of leukemia cell growth): 70 µM
- cell number in FTS-treated cells as a percentage of controls (avg) ([6]; FTS 12.5 uM): 104%
- cell number in FTS-treated cells as a percentage of controls (avg) ([6]; FTS 25 uM): 82%
- cell number in FTS-treated cells as a percentage of controls (avg) ([6]; FTS 50 uM): 82%
- cell number in FTS-treated cells as a percentage of controls (avg) ([6]; FTS 75 uM): 32%
- cell number in FTS-treated cells as a percentage of controls (avg) ([6]; FTS 100 uM): 9%
- cell number in FTS-treated cells as a percentage of controls (avg) ([7]; FTS 6.25 uM): 76%
- cell number in FTS-treated cells as a percentage of controls (avg) ([7]; FTS 12.5 uM): 69%
- cell number in FTS-treated cells as a percentage of controls (avg) ([7]; FTS 25 uM): 82%
- cell number in FTS-treated cells as a percentage of controls (avg) ([7]; FTS 50 uM): 67%
- cell number in FTS-treated cells as a percentage of controls (avg) ([7]; FTS 75 uM): 31%
- IC50 [7, 11]: 60 µM
- sensitization of K562 cells to GLEEVEC ([8]; FTS 70 μM with GLEEVEC 200 nM): chemosensitized the K562 cells to GLEEVEC
- cells in sub-G1 ([8]; FTS only, 70 μM): 8%
- lineage response (PLT, HGB or ANC) over the course of treatment ([9]; five patients, advanced MDS, AML or CML refractory to chemotherapy, 200 to 600 mg b.i.d., days 1 to 21 of a 28 day cycle): improvement in one lineage
- lineage response (PLT, HGB, ANC) over the course of treatment ([9]; one patient, advanced MDS refractory to chemotherapy, 200 b.i.d. (400 mg daily), days 1 to 21 of a 28 day cycle): improvement in three lineages
- ANC, best level observed [9, 12]: 4.503e+09 L⁻¹
- ANC, baseline level [9, 12]: 0.285 to × 10^9/L
- ANC, best level observed [9, 13]: 9.54e+08 L⁻¹
- ANC, baseline level [9, 13]: 0.144 to × 10^9/L
- HGB, best level observed ([9]; person, CML, FTS 600 mg b.i.d.): 11.4 g/dL
- HGB, baseline level ([9]; person, CML, FTS 600 mg b.i.d.): 9.3 to g/dL
- PLT, best level observed ([9]; person, MDS, FTS 200 mg b.i.d.): 5.4e+10 L⁻¹
- PLT, baseline level ([9]; person, MDS, FTS 200 mg b.i.d.): 21 to × 10^9/L
- HGB, best level observed ([9]; person, MDS, FTS 400 mg b.i.d.): 10.4 g/dL
- HGB, baseline level ([9]; person, MDS, FTS 400 mg b.i.d.): 9.7 to g/dL
- ANC, best level observed [9, 14]: 9.7e+08 L⁻¹
- HGB, best level observed [9, 14]: 12.7 g/dL
- PLT, best level observed [9, 14]: 1.05e+11 L⁻¹
- ANC, baseline level [9, 14]: 0.40 to × 10^9/L
- HGB, baseline level [9, 14]: 10.4 to g/dL
- PLT, baseline level [9, 14]: 53 to × 10^9/L
- IC50 ([10]; Homo sapiens, seven leukemia cell lines, read-out: half maximal inhibitory concentration (IC50) values, range over the cell lines): 20 to 70 µM
- growth inhibition, result in words ([10]; seven cell lines): inhibited growth of each of seven cell lines

SMILES: Cc1ccc(NC(=O)c2ccc(CN3CCN(C)CC3)cc2)cc1Nc1nccc(-c2cccnc2)n1 [GLEEVEC, reference compound]
- cells in sub-G1 ([8]; GLEEVEC only, 200 nM): 13%
